These compounds were tested against T1, rat NaPi-2b (Rattus norvegicus, UniProt Q9JJ09) (assay: Sodium-dependent phosphate uptake of Xenopus oocytes which expressed NaPi-2b (32P)). Settings: Xenopus oocytes expressing rat NaPi-2b, 32P radioactive phosphorus; read-out: IC50 (phosphate uptake inhibitory activity).
T1 construct: expressed in transfected cells; host or cells: Xenopus oocytes injected with cRNA
T1 sequence (Q9JJ09 1-695): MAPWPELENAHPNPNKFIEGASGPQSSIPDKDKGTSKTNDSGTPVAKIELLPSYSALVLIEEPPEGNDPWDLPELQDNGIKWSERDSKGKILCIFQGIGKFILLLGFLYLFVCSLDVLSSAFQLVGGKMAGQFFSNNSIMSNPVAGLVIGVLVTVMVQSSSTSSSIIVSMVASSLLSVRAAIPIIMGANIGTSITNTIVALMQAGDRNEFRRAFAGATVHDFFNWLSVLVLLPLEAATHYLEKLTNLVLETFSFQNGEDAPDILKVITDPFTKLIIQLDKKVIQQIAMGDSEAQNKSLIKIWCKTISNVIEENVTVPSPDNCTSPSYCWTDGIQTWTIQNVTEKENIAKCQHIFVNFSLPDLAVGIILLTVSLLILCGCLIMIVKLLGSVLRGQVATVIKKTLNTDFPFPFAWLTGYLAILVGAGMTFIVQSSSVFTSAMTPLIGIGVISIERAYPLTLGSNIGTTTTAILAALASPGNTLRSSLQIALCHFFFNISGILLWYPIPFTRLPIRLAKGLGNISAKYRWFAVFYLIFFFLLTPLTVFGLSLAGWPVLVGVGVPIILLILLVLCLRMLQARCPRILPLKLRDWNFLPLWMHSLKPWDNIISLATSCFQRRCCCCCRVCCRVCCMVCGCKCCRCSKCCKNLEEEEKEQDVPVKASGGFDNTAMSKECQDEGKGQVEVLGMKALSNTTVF
Format: cell-based
In short: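 Rat small-intestine NaPi-2b cRNA injected into Xenopus oocytes, expressed for 2 days. Sodium-dependent phosphate uptake measured with 32P; % inhibition at 300 and 100 μM taken from the same inhibition curve.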

| SMILES | IC50 [µM] |
| --- | --- |
| COc1ccc(C(=O)Nc2ccc(I)cc2C(=O)N/N=C/c2ccc(F)cc2)cc1OC [Compound 205, N-[2-(4-Fluoro-benzylidene-hydrazinocarbonyl)-4-iodo-phenyl]-3,4-dimethoxy-benzamide] | < 3 |
| COc1ccc(C(=O)Nc2ccc(I)cc2C(=O)N/N=C/c2cccc(C)c2)cc1OC [Compound 206, N-[4-Iodo-2-(3-methyl-benzylidene-hydrazinocarbonyl)-phenyl]-3,4-dimethoxy-benzamide] | < 3 |
| COc1ccc(C(=O)Nc2ccc(I)cc2C(=O)N/N=C/c2ccc(C)cc2)cc1OC [Compound 207, N-[4-Iodo-2-(4-methyl-benzylidene-hydrazinocarbonyl)-phenyl]-3,4-dimethoxy-benzamide] | < 1 |
| COc1ccc(C(=O)Nc2ccc(I)cc2C(=O)N/N=C/c2ccc(C)c(C)c2)cc1OC [Compound 208, N-[2-(3,4-Dimethyl-benzylidene-hydrazinocarbonyl)-4-iodo-phenyl]-3,4-dimethoxy-benzamide] | < 0.3 |
| COc1ccc(C(=O)Nc2ccc(I)cc2C(=O)N/N=C/c2ccc(Cl)c(C(F)(F)F)c2)cc1OC [Compound 209, N-[2-(4-Chloro-3-trifluoromethyl-benzylidene-hydrazinocarbonyl)-4-iodo-phenyl]-3,4-dimethoxy-benzamide] | < 1 |
| Cn1cccc1/C=N/NC(=O)c1ccccc1NC(=O)c1ccncc1 [Compound 210, N-[2-(1-Methyl-1H-pyrrol-2-ylmethylene-hydrazinocarbonyl)-phenyl]-isonicotinamide] | 35 |
| Cn1cccc1/C=N/NC(=O)c1cc(Br)ccc1NC(=O)c1cccnc1 [Compound 211, N-[4-Bromo-2-(1-methyl-1H-pyrrol-2-ylmethylene-hydrazinocarbonyl)-phenyl]-nicotinamide] | 69.1 |
| Cn1cccc1/C=N/NC(=O)c1cc(Cl)ccc1NC(=O)c1cccnc1 [Compound 212, N-[4-Chloro-2-(1-methyl-1H-pyrrol-2-ylmethylene-hydrazinocarbonyl)-phenyl]-nicotinamide] | 71.3 |
| COc1ccc(C(=O)Nc2ccccc2C(=O)N/N=C(\C)c2cccc(F)c2)cc1OC [Compound 213, N-{2-[1-(3-Fluoro-phenyl)-ethylidene-hydrazinocarbonyl]-phenyl}-3,4-dimethoxy-benzamide] | 16.6 |
| COc1ccc(C(=O)Nc2ccc(Br)cc2C(=O)N/N=C(\C)c2cccc(F)c2)cc1OC [Compound 214, N-{4-Bromo-2-[1-(3-fluoro-phenyl)-ethylidene-hydrazinocarbonyl]-phenyl}-3,4-dimethoxy-benzamide] | 3.95 |
| C/C(=N\NC(=O)c1cc(Br)ccc1NC(=O)c1cccnc1)c1cccc(C)c1 [Compound 215, N-[4-Bromo-2-(1-m-toluyl-ethylidene-hydrazinocarbonyl)-phenyl]-nicotinamide] | < 3 |
| C/C(=N\NC(=O)c1cc(Br)ccc1NC(=O)c1cccnc1)c1ccc(C)cc1 [Compound 216, N-[4-Bromo-2-(1-p-toluyl-ethylidene-hydrazinocarbonyl)-phenyl]-nicotinamide] | 21.8 |
| C/C(=N\NC(=O)c1cc(Cl)ccc1NC(=O)c1cccnc1)c1ccc(C)cc1 [Compound 217, N-[4-Chloro-2-(1-p-toluyl-ethylidene-hydrazinocarbonyl)-phenyl]-nicotinamide] | 11.2 |
| Cc1cc(/C=N/NC(=O)c2ccccc2NC(=O)c2cccnc2)oc1C [Compound 218, N-[2-(4,5-Dimethyl-furan-2-ylmethylene-hydrazinocarbonyl)-phenyl]-nicotinamide] | 4.05 |
| Cc1cc(/C=N/NC(=O)c2ccccc2NC(=O)c2ccncc2)oc1C [Compound 219, N-[2-(4,5-Dimethyl-furan-2-ylmethylene-hydrazinocarbonyl)-phenyl]-isonicotinamide] | 9.07 |
| Cc1cc(/C=N/NC(=O)c2cc(Br)ccc2NC(=O)c2cccnc2)oc1C [Compound 220, N-[4-Bromo-2-(4,5-dimethyl-furan-2-ylmethylene-hydrazinocarbonyl)-phenyl]-nicotinamide] | 9.42 |
| Cc1cc(/C=N/NC(=O)c2cc(Br)ccc2NC(=O)c2ccncc2)oc1C [Compound 221, N-[4-Bromo-2-(4,5-dimethyl-furan-2-ylmethylene-hydrazinocarbonyl)-phenyl]-isonicotinamide] | 9.51 |
| Cc1cc(/C=N/NC(=O)c2cc(Cl)ccc2NC(=O)c2cccnc2)oc1C [Compound 222, N-[4-Chloro-2-(4,5-dimethyl-furan-2-ylmethylene-hydrazinocarbonyl)-phenyl]-nicotinamide] | 8.86 |
| Cc1cc(/C=N/NC(=O)c2cc(Cl)ccc2NC(=O)c2ccncc2)oc1C [Compound 223, N-[4-Chloro-2-(4,5-dimethyl-furan-2-ylmethylene-hydrazinocarbonyl)-phenyl]-isonicotinamide] | 11.3 |
| O=C(Nc1ccccc1C(=O)N/N=C/c1ccccc1)c1ccccc1 [Compound 224, N-[2-(Benzylidene-hydrazinocarbonyl)-phenyl]-benzamide] | 20 |
| O=C(Nc1ccccc1C(=O)N/N=C/c1ccccc1F)c1ccccc1 [Compound 225, N-[2-(2-Fluoro-benzylidene-hydrazinocarbonyl)-phenyl]-benzamide] | 61 |
| O=C(Nc1ccccc1C(=O)N/N=C/c1cccc(F)c1)c1ccccc1 [Compound 226, N-[2-(3-Fluoro-benzylidene-hydrazinocarbonyl)-phenyl]-benzamide] | 1.69 |
| COc1ccc(C(=O)Nc2cc(OC)c(OC)cc2C(=O)N/N=C/c2ccccc2)cc1OC [Compound 227, N-[2-(Benzylidene-hydrazinocarbonyl)-4,5-dimethoxy-phenyl]-3,4-dimethoxy-benzamide] | 7.4 |
| O=C(Nc1ccccc1C(=O)N/N=C/c1ccccc1Br)c1ccccc1 [Compound 228, N-[2-(2-Bromo-benzylidene-hydrazinocarbonyl)-phenyl]-benzamide] | 22.5 |
| Cc1ccccc1/C=N/NC(=O)c1ccccc1NC(=O)c1ccccc1 [Compound 229, N-[2-(2-Methyl-benzylidene-hydrazinocarbonyl)-phenyl]-benzamide] | 6.32 |

Same assay, conditions: phosphate uptake, oocytes expressing rat NaPi-2b; 300 μM, determined from inhibition curve

| SMILES | inhibition at 300 µM [%] |
| --- | --- |
| COc1ccc(C(=O)Nc2cc(OC)c(OC)cc2C(=O)N/N=C/c2ccccc2C)cc1OC [Compound 230, N-[4,5-Dimethoxy-2-(2-methyl-benzylidene-hydrazinocarbonyl)-phenyl]-3,4-dimethoxy-benzamide] | 50.4 |
| COc1ccc(C(=O)Nc2ccccc2C(=O)N/N=C/c2ccccc2Cl)cc1OC [Compound 231, N-[2-(2-Chloro-benzylidene-hydrazinocarbonyl)-phenyl]-3,4-dimethoxy-benzamide] | 32.8 |
| COc1ccc2cc(/C=N/NC(=O)c3ccccc3NC(=O)c3ccc(OC)c(OC)c3)ccc2c1 [Compound 232, 3,4-Dimethoxy-N-[2-(6-methoxy-naphthalen-2-ylmethylene-hydrazinocarbonyl)-phenyl]-benzamide] | 44.9 |
| COc1ccc(C(=O)Nc2ccccc2C(=O)N/N=C/c2ccc(-c3ccccc3)cc2)cc1OC [Compound 233, N-[2-(Biphenyl-4-ylmethylene-hydrazinocarbonyl)-phenyl]-3,4-dimethoxy-benzamide] | 33.6 |
| COc1ccc(C(=O)Nc2ccccc2C(=O)N/N=C/c2ccc(Br)cc2)cc1OC [Compound 234, N-[2-(4-Bromo-benzylidene-hydrazinocarbonyl)-phenyl]-3,4-dimethoxy-benzamide] | 37.9 |

From US8134015B2, “Compound inhibiting in vivo phosphorous transport and medicine containing the same” (Kyowa Hakko Kirin Co., Ltd., priority 2003, dated 2012)
